Reference: PubChem BioAssay AID248 (DTP/NCI, 2004)
Values joined by “and” are separate entries in the source; they are usually repeats but may differ in a detail not shown here. Identical values can stand only once. Inconclusive results and toxic doses are left out. Cut-off read from the data, not from the text of the source: active = T/C of 150% or more; inactive = T/C below 125%.

Test system: L1210 leukemia ip in BDF1 mice, survival T/C
Experiment: NCI In Vivo Anticancer Drug Screen. Data for tumor model L1210 Leukemia (intraperitoneal) in B6D2F1 (BDF1) mice
Conditions: endpoint: mean survival time, higher = longer survival
In short: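 Ratio derived from survival: compound-dosed mice over vehicle-dosed mice, all bearing a transplantable tumor.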

[1] = dose: 100.0 mg/kg/injection, schedule: Q04DX003 (ip), vehicle: saline
[2] = dose: 200.0 mg/kg/injection, schedule: Q04DX003 (ip), vehicle: saline
[3] = dose: 100.0 mg/kg/injection, schedule: Q04DX003 (ip), vehicle: saline with Tween-80
[4] = dose: 200.0 mg/kg/injection, schedule: Q01DX009 (ip), vehicle: saline with Tween-80
[5] = dose: 200.0 mg/kg/injection, schedule: Q04DX003 (ip), vehicle: saline with Tween-80
[6] = dose: 400.0 mg/kg/injection, schedule: Q04DX003 (ip), vehicle: saline with Tween-80
[7] = dose: 100.0 mg/kg/injection, schedule: Q01DX001 (ip), vehicle: saline
[8] = dose: 200.0 mg/kg/injection, schedule: Q01DX001 (ip), vehicle: saline
[9] = dose: 400.0 mg/kg/injection, schedule: Q01DX001 (ip), vehicle: saline
[10] = dose: 100.0 mg/kg/injection, schedule: Q01DX001 (ip), vehicle: carboxymethylcellulose (CMC)
[11] = dose: 200.0 mg/kg/injection, schedule: Q01DX001 (ip), vehicle: carboxymethylcellulose (CMC)
[12] = dose: 100.0 mg/kg/injection, schedule: Q01DX009 (ip), vehicle: Klucel (hydroxypropylcellulose) (HPC)
[13] = dose: 100.0 mg/kg/injection, schedule: Q04DX003 (ip), vehicle: Klucel (hydroxypropylcellulose) (HPC)
[14] = dose: 200.0 mg/kg/injection, schedule: Q01DX009 (ip), vehicle: Klucel (hydroxypropylcellulose) (HPC)
[15] = dose: 200.0 mg/kg/injection, schedule: Q04DX003 (ip), vehicle: Klucel (hydroxypropylcellulose) (HPC)
[16] = dose: 400.0 mg/kg/injection, schedule: Q01DX009 (ip), vehicle: Klucel (hydroxypropylcellulose) (HPC)
[17] = dose: 400.0 mg/kg/injection, schedule: Q04DX003 (ip), vehicle: Klucel (hydroxypropylcellulose) (HPC)
[18] = dose: 400.0 mg/kg/injection, schedule: Q01DX001 (ip), vehicle: carboxymethylcellulose (CMC)
[19] = dose: 12.5 mg/kg/injection, schedule: Q01DX009 (ip), vehicle: saline
[20] = dose: 25.0 mg/kg/injection, schedule: Q01DX009 (ip), vehicle: saline

Measured: T/C

CCCCCCCCCCCCCCCCCC(=O)NCCCNC(=O)CCCCCCCCCCCCCCCCC
inactive: dose: 75.0 mg/kg/injection, schedule: Q01DX001 (ip), vehicle: saline 98 % of control | dose: 150.0 mg/kg/injection, schedule: Q01DX001 (ip), vehicle: saline 95 % of control | dose: 300.0 mg/kg/injection, schedule: Q01DX001 (ip), vehicle: saline 106 % of control

O=C1CC=C(Nc2ccc(Br)cc2)C(=O)O1
inactive: [1] 106 % of control | [2] 108 % of control | dose: 400.0 mg/kg/injection, schedule: Q04DX003 (ip), vehicle: saline 108 % of control

COc1ccc(C)cc1NC(=O)Nc1cc(Cl)ccc1C
inactive: dose: 100.0 mg/kg/injection, schedule: Q01DX001 (ip), vehicle: saline with Tween-80 93 % of control | dose: 100.0 mg/kg/injection, schedule: Q01DX009 (ip), vehicle: saline with Tween-80 95 % of control and 112 % of control | dose: 100.0 mg/kg/injection, schedule: Q04DX002 (ip), vehicle: saline with Tween-80 102 % of control and 87 % of control | [3] 90 % of control | dose: 200.0 mg/kg/injection, schedule: Q01DX001 (ip), vehicle: saline with Tween-80 93 % of control | [4] 102 % of control and 88 % of control | dose: 200.0 mg/kg/injection, schedule: Q04DX002 (ip), vehicle: saline with Tween-80 87 % of control | [5] 101 % of control | dose: 400.0 mg/kg/injection, schedule: Q01DX009 (ip), vehicle: saline with Tween-80 93 % of control and 91 % of control | dose: 400.0 mg/kg/injection, schedule: Q04DX002 (ip), vehicle: saline with Tween-80 95 % of control and 87 % of control | [6] 94 % of control

CCCCCCC(=O)N(CC)C(=NCC)c1ccc(NC(=O)c2ccc(C(=O)Nc3ccc(C(=NCC)N(CC)C(=O)CCCCCC)cc3)cc2)cc1
inactive: dose: 3.75 mg/kg/injection, schedule: Q01DX015 (ip), vehicle: methylcellulose (MC) 98 % of control | dose: 7.5 mg/kg/injection, schedule: Q01DX015 (ip), vehicle: methylcellulose (MC) 101 % of control | dose: 15.0 mg/kg/injection, schedule: Q01DX015 (ip), vehicle: methylcellulose (MC) 98 % of control | dose: 30.0 mg/kg/injection, schedule: Q01DX015 (ip), vehicle: methylcellulose (MC) 90 % of control | dose: 62.0 mg/kg/injection, schedule: Q01DX015 (ip), vehicle: methylcellulose (MC) 93 % of control | dose: 125.0 mg/kg/injection, schedule: Q01DX015 (ip), vehicle: methylcellulose (MC) 90 % of control | dose: 250.0 mg/kg/injection, schedule: Q01DX015 (ip), vehicle: methylcellulose (MC) 87 % of control | dose: 500.0 mg/kg/injection, schedule: Q01DX015 (ip), vehicle: methylcellulose (MC) 86 % of control

CCOC(=O)/C=C(/N)c1c(C)[nH]c2ccccc12
inactive: [7] 102 % of control | [8] 113 % of control | [9] 87 % of control

CC(C)/C(=N\Nc1ccc([N+](=O)[O-])cc1[N+](=O)[O-])c1ccccc1
inactive: [3] 96 % of control | [5] 106 % of control | [6] 100 % of control

CC(C)(CBr)COC(=O)Nc1cccc2ccccc12
inactive: dose: 50.0 mg/kg/injection, schedule: Q01DX009 (ip), vehicle: saline with Tween-80 91 % of control | [4] 87 % of control

CCc1c(Nc2ccc(C)cc2)[nH]c(N)nc1=S
inactive: dose: 200.0 mg/kg/injection, schedule: Q01DX Z (ip), vehicle: methylcellulose (MC) 89 % of control

NC1CON(C(c2ccccc2)(c2ccccc2)c2ccccc2)C1=O (stereo unspecified)
inactive: [10] 94 % of control | [11] 89 % of control

COCCCNS(=O)(=O)c1ncnc2nc[nH]c12
inactive: dose: 10.0 mg/kg/injection, schedule: Q01DX Z (ip), vehicle: carboxymethylcellulose (CMC) 105 % of control | dose: 20.0 mg/kg/injection, schedule: Q01DX Z (ip), vehicle: carboxymethylcellulose (CMC) 103 % of control | dose: 25.0 mg/kg/injection, schedule: Q01DX Z (ip), vehicle: carboxymethylcellulose (CMC) 105 % of control | dose: 40.0 mg/kg/injection, schedule: Q01DX Z (ip), vehicle: carboxymethylcellulose (CMC) 103 % of control | dose: 50.0 mg/kg/injection, schedule: Q01DX Z (ip), vehicle: carboxymethylcellulose (CMC) 110 % of control | dose: 80.0 mg/kg/injection, schedule: Q01DX Z (ip), vehicle: carboxymethylcellulose (CMC) 93 % of control | dose: 100.0 mg/kg/injection, schedule: Q01DX Z (ip), vehicle: carboxymethylcellulose (CMC) 117 % of control | dose: 125.0 mg/kg/injection, schedule: Q01DX Z (ip), vehicle: carboxymethylcellulose (CMC) 88 % of control | dose: 250.0 mg/kg/injection, schedule: Q01DX Z (ip), vehicle: carboxymethylcellulose (CMC) 87 % of control

N#CCc1[nH]nc(N)c1C#N
inactive: [12] 95 % of control | [13] 89 % of control | [14] 102 % of control | [15] 93 % of control | [16] 96 % of control | [17] 91 % of control

CCCCCCc1cc(N=Nc2ccc(S(=O)(=O)Nc3occ(C)c3C)cc2)c(O)cc1O
inactive: [10] 93 % of control | [11] 93 % of control | [18] 98 % of control

COc1ccccc1CN1CCCN(Cc2ccccc2OC)C1c1cc(Br)c(OC)c(OC)c1
inactive: [10] 91 % of control | [11] 91 % of control | [18] 87 % of control

COc1nc2c(=O)[nH]cnc2n1C1OC(CO)C(O)C1O (stereo unspecified)
inactive: [7] 96 % of control | [8] 100 % of control | [9] 97 % of control

FCc1nc2nc(Cl)c(Cl)nc2[nH]1
inactive: [19] 100 % of control | [20] 96 % of control | dose: 50.0 mg/kg/injection, schedule: Q01DX009 (ip), vehicle: saline 88 % of control | [1] 97 % of control | [2] 97 % of control

CCCCCC[N+](C)(C)CCOC(=O)C1C2CC3OC(=O)C1C3C2 (stereo unspecified)
inactive: [1] 97 % of control

O=C(CSc1cc(Cl)ccc1Cl)Nc1ccccc1
inactive: dose: 100.0 mg/kg/injection, schedule: Q01DX001 (ip), vehicle: other 95 % of control | dose: 200.0 mg/kg/injection, schedule: Q01DX001 (ip), vehicle: other 96 % of control | dose: 400.0 mg/kg/injection, schedule: Q01DX001 (ip), vehicle: other 96 % of control

CCOC(=O)C(O)(CC)c1cc[n+](Cc2cc3ccccc3nc2Cl)cc1C (stereo unspecified)
inactive: dose: 50.0 mg/kg/injection, schedule: Q01DX001 (ip), vehicle: saline 115 % of control | [7] 94 % of control

CCC(C#N)C1C=CCCC1 (stereo unspecified)
inactive: dose: 75.0 mg/kg/injection, schedule: Q01DX001 (ip), vehicle: other 107 % of control | dose: 150.0 mg/kg/injection, schedule: Q01DX001 (ip), vehicle: other 107 % of control

CN(C)c1ccc(/C=C2\CCC/C(=C\c3ccc(N(C)C)cc3)C2=O)cc1
inactive: [13] 96 % of control | [15] 96 % of control | [17] 92 % of control

Cc1cc2cccc[n+]2cc1C
inactive: [19] 95 % of control | [20] 98 % of control

CC(=O)c1cccc(NC(=O)Oc2ccc(-c3ccccc3)cc2Cl)c1
inactive: [12] 98 % of control | [14] 97 % of control | [16] 106 % of control
